System: T1, tannase (tannin acyl hydrolase, TAH) from Aspergillus niger GH1
T1 construct: native intracellular enzyme from submerged culture with tannic acid
Experiment: HPLC of released gallic acid; Lineweaver-Burk
Type: biochemical
Conditions: free, partially purified enzyme; 50 mM citrate pH 5.5, 30 °C; read-out: Free tannase / K M
Excerpt: HPLC of released gallic acid; Lineweaver-Burk on tannase (tannin acyl hydrolase, TAH) from Aspergillus niger GH1

COC(=O)c1cc(O)c(O)c(O)c1 [methyl gallate]
Km: 0.433 mM

Source: PMC3171769, “Catalytical Properties of Free and Immobilized Aspergillus niger Tannase” (Enzyme Research, 2011)
